The values below come from patent US6759409B2, “Inhibitors of papilloma virus” (Boehringer Ingelheim (Canada) Ltd., priority 2000, dated 2004).

Usually IC50 stands for the concentration that gives 50% inhibition. Read a low IC50 as greater potency.

Bounds are passed on as bounds.

This assay addresses T1, HPV-11 E1-E2-DNA origin of replication complex (Human papillomavirus 11, UniProt P04015).
T1 construct: approximately 100-200 ng of purified E1
The assay is described as follows: E2-dependent E1 DNA binding assay (E1-E2 DNA assay). As for the experimental part: This particular assay determines the ability of a test compound to inhibit the activity (IC50) of HPV-11 DNA replication. More specifically, in the assay described herein, the inhibitory activity of the test compound is evaluated based on its ability to interfere with the E1-E2-DNA origin of replication interaction, thereby inhibiting initiation of viral DNA replication.
This assay was modeled on a similar assay for SV40 T Antigen described by McKay (J. Mol. Biol., 1981,145:471). A 400 bp radiolabeled DNA probe, containing the HPV-11 origin of replication (Chiang et al., 1992, Proc. Natl. Acad. Sci. USA 89:5799) was produced by pcr, using plasmid pBluescript™ SK encoding the origin (nucleotides 7886-61 of the HPV-11 genome in unique BAMH1 site) as template and primers flanking the origin. Radiolabel was incorporated as [^33P]dCTP. Binding assay buffer consisted of: 20 mM Tris pH 7.6, 100 mM NaCl, 1 mM DTT, 1 mM EDTA.
Other reagents used were protein A-SPA beads (type II, Amersham) and K72 rabbit polyclonal antiserum, raised against a peptide corresponding to the C-terminal 14 amino acids of HPV-11 E1. Following the protocol from Amersham, one bottle of beads was mixed with 25 mL of binding assay buffer. For the assay, a saturating amount of K72 antiserum was added to the beads and the mixture was incubated for 1 h, washed with one volume of binding assay buffer, and then resuspended in the same volume of fresh binding assay buffer. Binding reactions contained 8 ng of E2, approximately 100-200 ng of purified E1, and 0.4 ng of radiolabeled probe in a total of 80 μL of binding assay buffer. After 1 h at room temperature, 25 μL of K72 antibody-SPA bead suspension was added to with the binding reaction and mixed. After an additional hour of incubation at room temperature, the reactions were centrifuged briefly to pellet the beads and the extent of complex formation was determined by scintillation counting on a Packard TopCount™. Typically, the signal for reactions containing E1 and E2 was 20-30 fold higher than the background observed when either E1, E2, or both was omitted.

[1] abbreviates: Table 1, racemic cis/cis isomer (form 1).
Where [2] appears, read: Table 1A, enantiomerically pure cis/cis isomer (form 1).

T1 sequence (P04015 whole entry, one chain of several): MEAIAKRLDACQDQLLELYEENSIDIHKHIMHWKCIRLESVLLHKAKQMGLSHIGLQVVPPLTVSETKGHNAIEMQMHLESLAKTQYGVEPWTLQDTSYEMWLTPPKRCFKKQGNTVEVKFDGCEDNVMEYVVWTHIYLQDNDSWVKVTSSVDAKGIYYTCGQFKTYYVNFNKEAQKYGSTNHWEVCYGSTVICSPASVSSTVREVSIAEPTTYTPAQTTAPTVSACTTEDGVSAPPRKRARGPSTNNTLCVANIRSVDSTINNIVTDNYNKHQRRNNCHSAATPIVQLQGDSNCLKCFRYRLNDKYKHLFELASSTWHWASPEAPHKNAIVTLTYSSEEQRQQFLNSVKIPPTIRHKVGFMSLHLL

Regarding `CC(=O)c1ccc(NC(=O)C2C(c3ccc(Cl)c(Cl)c3)OC3(C(=O)c4ccc5ccccc5c4C3=O)C2C(=O)O)cc1` (stereo not shown) [compound 1091], under setting [1], the half-maximal inhibitory concentration (IC50) lay within 5 to 50 µM. For the setting “Table 4, racemic cis/cis isomer (form 1)”, `CC(=O)c1ccc(NC(=O)C2C(/C=C/c3ccccc3)OC3(C(=O)c4ccccc4C3=O)C2C(=O)O)cc1` (stereo not shown) [compound 4005] registered a half-maximal inhibitory concentration (IC50) of 5 to 50 µM. In turn, `CCCCNC(=O)C1C(c2ccc(Cl)c(Cl)c2)OC2(C(=O)c3ccccc3C2=O)C1C(=O)O` (stereo not shown) [compound 1050] gave an IC50 under setting [1] of 0.5 to 5 µM. Still for that read-out and setting: the value for `CC(=O)c1ccc(NC(=O)C2C(c3ccc(Cl)c(Cl)c3)OC3(C(=O)c4ccc5ccccc5c4C3=O)C2C(=O)O)cc1` (stereo not shown) [compound 1095] was 5 to 50 µM. `Cc1ccc2c(c1)C(=O)C1(OC(c3ccc(Cl)c(Cl)c3)C(C(=O)Nc3ccc(-c4csnn4)cc3)C1C(=O)O)C2=O` (single isomer, unassigned) [A1007] registered an IC50 under setting [2] of 0.5 to 5 µM.

In the case of `CC(=O)c1ccc(NC(=O)C2C(c3ccc(Cl)c(Cl)c3)OC3(C(=O)c4cc5ccccc5cc4C3=O)C2C(=O)O)cc1` (stereo not shown) [compound 1090], under setting [1], the IC50 lay in the range of 5 to 50 µM. Compound `Cc1ccc2c(c1)C(=O)C1(OC(c3ccc(Cl)c(Cl)c3)C(C(=O)Nc3ccc(-c4csnn4)cc3)C1C(=O)O)C2=O` (single isomer, unassigned) [A1008] had a half-maximal inhibitory concentration (IC50) under setting [2] below 0.5 µM.
